Measured values reported in patent US20170371042A1, “CONTRAST AGENT FOR OPTICAL IMAGING, USE THEREOF AND APPARATUS USING THE SAME” (KYUNGPOOK NATIONAL UNIVERSITY INDUSTRY- ACADEMIC …, priority 2009, published 2017).

How the values were obtained:
[1] = cited from earlier work; for Decay mode EC (%): electron capture; for Ece mean: conversion electron
[2] = Luminescence imaging using [^18F]FDG; format: in vivo; settings: BALB/c mouse bearing luciferase-transfected 4T1 tumour cells, 1 hour after injecting 409 μCi via tail vein, no luciferin
Method: A BALB/c mouse with a luciferase-transfected 4T1 tumor was injected with […] of [^18F]FDG via the tail vein. One hour after the injection, the mouse was scanned for 3 minutes in the prone position using IVIS 200. […] The brain (red arrow) and the brown fat (white arrow) are clearly visualized.

[3] = normal mouse (C3H/HeN), 500 μCi intraperitoneally, 40 minutes post-injection
Method: 500 mCi of ^124I was injected intraperitoneally into a normal mouse (C3H/HeN, Orient Bio Inc., Korea). 40 minutes after the injection, a luminescence image was obtained by scanning the mouse for 1 minute in the lying position.

In the case of `OC[C@H]1OC(O)[C@H]([18F])[C@@H](O)[C@@H]1O` (stereo partly shown) [^18F, [^18F]FDG], the half-life [1] is listed as “(110 min)”, the “Decay mode EC (%)” value [1] is listed as “(3) %” and the “luminescence signal in mouse image” value [2] is listed as “intense signal was detected in the brain and brown fat area on the shoulder”.

For `[64Cu+2].[Cl-].[Cl-]` [^64Cu, [^64Cu]CuCl2], the half-life [1] is listed as “(12.7 h)”.

For `[68Ga+3].[Cl-].[Cl-].[Cl-]` [^68Ga, [^68Ga]GaCl3], the half-life [1] is listed as “(68 min)” and the “Decay mode EC (%)” value [1] is listed as “(11) %”.

In the case of `[Cl][111In]([Cl])[Cl]` [^111In, [^111In]InCl3], the half-life [1] is given as “(2.8 d)”, the Ece mean [1] is given as 176 keV and the “Decay mode EC (%)” value [1] is given as “(100) %”.

In the case of `[124I-].[Na+]` [^124I, [^124I]NaI], the half-life [1] is given as “(4.2 d)”, the “Decay mode EC (%)” value [1] is given as “(77) %” and the “uptake seen in luminescence image” value [3] is given as “high uptake in the thyroid and bladder region”.

In the case of `[131I-].[Na+]` [^131I, [^131I]NaI], the half-life [1] is listed as “(8.0 d)”.

In the case of [^99mTc]TcO4^−, the half-life [1] is given as “(6.0 h)”, the Ece mean [1] is given as 14 keV and the “Decay mode IT (%)” value ([1]; isomeric transition) is given as “(100) %”.
